The text below walks through data of US20240156802A1, “METHODS FOR TREATING DISORDERS AMELIORATED BY MUSCARINIC RECEPTOR ACTIVATION” (KARUNA THERAPEUTICS, INC., priority 2021, published 2024).

Molecules are shown by their SMILES.

For data set [1] the following is noted: 25-75 mg TID, 75-225 mg TDD; cited from earlier work.
Data set [2] can be described thus: Phase 1b exploratory PK of xanomeline in healthy elderly subjects given KarXT. The settings on record: for blood levels in healthy elderly subjects compared with adults under 65: Cohorts 1 and 2, lower oral doses; for Cmax: human, plasma, oral. It is filed as in vivo, human. How it is done:
(§1) The purpose of this Phase 1b clinical trial was to evaluate the safety and tolerability of KarXT in healthy elderly volunteers and to assess its potential efficacy and safety in dementia-related psychosis (DRP). In the Phase 1b trial, the various doses and ratios were evaluated for both xanomeline and trospium in healthy elderly volunteers using a flexible dosing protocol titrated over about 2 to 3 weeks. The maximum dose was reached on Day 12, 15, and 17 in Cohorts 1, 2, and 3, respectively. Dosing lasted a total of 14, 18, and 20 days, respectively. Each cohort consisted of 16 healthy elderly volunteers.
(§2) This was a Phase 1, randomized, double-blind, multiple-dose, adaptive-design study evaluating the safety, tolerability, and exploratory PK of KarXT in healthy elderly subjects. The study consisted of a screening period of up to 28 days. This inpatient investigative period included a treatment period and a post-treatment observation period. A follow-up visit was completed 7±3 days after administering the final dose of the study drug. For Cohort 1, the inpatient investigative period was up to 17 days, including admission, a treatment period of up to 14 days, and a 2-day post-treatment observation period. For Cohort 2, the inpatient investigative period was up to 21 days, including admission, a treatment period of up to 18 days, and a 2-day post-treatment observation period. For Cohort 3, the inpatient investigative period was up to 23 days, including admission, a treatment period of up to 20 days, and a 2-day post-treatment observation period.
Subjects assigned to active treatment in Cohorts 1 and 2 started treatment with a lead-in dose of KarXT for 2 days. Subjects assigned to active treatment in Cohort 3 started treatment with a lead-in dose of KarXT for 4 days. KarXT doses were increased beginning on Day 3 (or Day 5 for Cohort 3) according to cohort-specific plans (FIGURE S 1) to achieve the following final cohort-specific total daily dose (TDD) of KarXT, if tolerated: • Cohort 1: 200/40 mg • Cohort 2: 200/30 mg • Cohort 3: 150/20 mg
The assessment of adverse events, clinical laboratory samples, electrocardiograms (ECGs), vital signs (including orthostatic vital signs), urine output monitoring, Columbia-Suicide Severity Rating Scale (C-SSRS), serial PK sampling, and collecting saliva to measure saliva volume were performed at defined time points during the study.
Table 2 contains the xanomeline Cmax data collected on the final day of the dosing period for cohorts 1, 2, and 3 in the healthy elderly trial compared to day 28 (last day PK data was collected) in the EMERGENT-1 trial for a patient population of ages 18-60 inclusive.

For data set [3] the following is noted: 26-week study of Alzheimer's disease; cited from earlier work.
The conditions of data set [4]: 125/30 mg dose group in EMERGENT-1, day 28, ages 18-60, TDD 250 mg; cited from earlier work.
The nature of data set [5]: Phase 1b safety and tolerability of KarXT in healthy elderly subjects (adverse events). The following applies: 30 mg TDD versus 40 mg TDD, given with xanomeline, normal elderly volunteers. It counts as in vivo, human. How it is done: as §1
as §2, with “For Cohort 3, the inpatient investigative period was up to 23 days, including admission, a treatment period of up to 20 days, and a 2-day post-treatment observation period.” left out

In the case of `CCCCCCOc1nsnc1C1=CCCN(C)C1` [Xanomeline, xanomeline], the effect on schizophrenia result in data set [1] is “alleviated”. Further, the “blood levels in healthy elderly subjects compared with adults under 65” value in data set [2] was “higher blood levels”. In addition, the Cmax (as a rule, the highest concentration seen after dosing) in data set [2] (Cohort 1, final day of dosing, average dose before PK 67 mg, average TDD 172 mg) worked out at 7.3 ± 2 ng/mL; in data set [2] (Cohort 2, final day of dosing, average dose before PK 61 mg, average TDD 156 mg), 14.2 ± 5.3 ng/mL; in data set [2] (Cohort 3, final day of dosing, average dose before PK 39 mg, average TDD 116 mg), 7.2 ± 2 ng/mL. Besides, the “mean plasma levels (Cmax) compared with EMERGENT-1 (200-250 mg xanomeline)” value in data set [2] (oral xanomeline about 100 to 200 mg per day, healthy elderly volunteers) is on record as “comparable to, or slightly higher than”. Also, in data set [3], the dropout rate is on record as 56%. Besides, the “mean Cmax of xanomeline” value in data set [4] is 9.4 ± 1.5 ng/mL.

On to `O=C(O[C@H]1C[C@H]2CC[C@@H](C1)[N+]21CCCC1)C(O)(c1ccccc1)c1ccccc1` [trospium, trospium chloride], for which the “blood levels in healthy elderly subjects compared with adults under 65” value in data set [2] was “higher blood levels”. The “tolerability by trospium dose” value in data set [5] is given as “performed better”.
